Experimental data from patent publication US6737383B1, “Herbicidal oxadiazolidines” (priority 1999, dated 2004).

Assays:
[1] = system: rice; experiment: Test B flood test rice; type: in vivo, Oryza sativa
Method in brief: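 Flood test on plants grown to the 2-leaf stage; treated plants kept in greenhouse twelve to sixteen days, then visually rated against controls on a 0 (no effect) to 10 (complete control) scale.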

[2] = system: smallflower flatsedge; experiment: Test B flood test smallflower flatsedge; type: in vivo, Cyperus difformis; conditions: for Plant response rating, S. Flatsedge (0 to 10 scale, 0 is no effect, 10 is complete control): Rate 62 g/ha, Pre-emergence; for Plant response rating, S. Flatsedge (0 to 10 scale, 0 is no effect, 10 is complete control) / S. Flatsedge plant response rating (0 to 10 scale, 0 is no effect, 10 is complete control): flood test species, visual evaluation after twelve to sixteen days; for S. Flatsedge plant response rating (0 to 10 scale, 0 is no effect, 10 is complete control): Rate 125 g/ha, under heading Pre-emergence
Protocol: (§1) At the same time, these crop and weed species were also treated with postemergence applications of test chemicals formulated in the same manner. Plants ranged in height from 2 to 18 cm (1- to 4-leaf stage) for postemergence treatments. Plant species in the flood test consisted of rice (Oryza sativa), smallflower flatsedge (Cyperus difformis), duck salad (Heteranthera limosa) and bamyardgrass (Echinochloa crus-galli) grown to the 2-leaf stage for testing. Treated plants and controls were maintained in a greenhouse for twelve to sixteen days, after which all species were compared to controls and visually evaluated. Plant response ratings, summarized in Table B, are based on a scale of 0 to 10 where 0 is no effect and 10 is complete control. A dash (−) response means no test result.

[3] = system: bamyardgrass; experiment: Test B flood test barnyardgrass; type: in vivo, Echinochloa crus-galli; conditions: for Plant response rating, Barnyardgrass (0 to 10 scale, 0 is no effect, 10 is complete control): Rate 62 g/ha, Pre-emergence; for Plant response rating, Barnyardgrass (0 to 10 scale, 0 is no effect, 10 is complete control) / Barnyardgrass plant response rating (0 to 10 scale, 0 is no effect, 10 is complete control): flood test species, visual evaluation after twelve to sixteen days; for Barnyardgrass plant response rating (0 to 10 scale, 0 is no effect, 10 is complete control): Rate 125 g/ha, under heading Pre-emergence
Protocol: as §1

[4] = system: duck salad; experiment: Test B flood test duck salad; type: in vivo, Heteranthera limosa; conditions: for Plant response rating, Ducksalad (0 to 10 scale, 0 is no effect, 10 is complete control): Rate 62 g/ha, Pre-emergence; for Plant response rating, Ducksalad (0 to 10 scale, 0 is no effect, 10 is complete control) / Ducksalad plant response rating (0 to 10 scale, 0 is no effect, 10 is complete control): flood test species, visual evaluation after twelve to sixteen days; for Ducksalad plant response rating (0 to 10 scale, 0 is no effect, 10 is complete control): Rate 125 g/ha, under heading Pre-emergence
Protocol: as §1

[5] = Rate 250 g/ha, Pre-emergence (flood test species), scale 0 to 10, 0 is no effect, 10 is complete control
[6] = Rate 500 g/ha, Pre-emergence section of Table B, 0 to 10 scale (0 no effect, 10 complete control)

Structure (SMILES) | Plant response rating, Rice (0 to 10 scale, 0 is no effect, 10 is complete control) ([1]; Rate 62 g/ha, flood test species, Pre-emergence, visual evaluation after twelve to sixteen days) | Rice plant response rating (0 to 10 scale, 0 is no effect, 10 is complete control) ([1]; Rate 125 g/ha, under heading Pre-emergence, flood test species, visual evaluation after twelve to sixteen days) | Rice plant response rating [1, 5] | Rice plant response rating [1, 6] | Plant response rating, S. Flatsedge (0 to 10 scale, 0 is no effect, 10 is complete control) [2] | S. Flatsedge plant response rating (0 to 10 scale, 0 is no effect, 10 is complete control) [2] | S. Flatsedge plant response rating [2, 5] | S. Flatsedge plant response rating [2, 6] | Plant response rating, Barnyardgrass (0 to 10 scale, 0 is no effect, 10 is complete control) [3] | Barnyardgrass plant response rating (0 to 10 scale, 0 is no effect, 10 is complete control) [3] | Barnyardgrass plant response rating [3, 5] | Barnyardgrass plant response rating [3, 6] | Plant response rating, Ducksalad (0 to 10 scale, 0 is no effect, 10 is complete control) [4] | Ducksalad plant response rating (0 to 10 scale, 0 is no effect, 10 is complete control) [4] | Ducksalad plant response rating [4, 5] | Ducksalad plant response rating [4, 6]
CC(C)N(C(=O)n1oc(=O)n(CC2CC2)c1=O)c1ccc(Cl)cc1 [Compound 539] | 0 | 0 | 0 | 0 | 0 | 0 | 0 | 0 | 0 | 0 | 0 | 0 | 0 | 0 | 0 | 0
CCCCCCn1c(=O)on(C(=O)N(c2ccc(Cl)cc2)C(C)C)c1=O [Compound 529] | – | – | – | – | 0 | 0 | 0 | 0 | 0 | 0 | 0 | 2 | 0 | 0 | 0 | 0
